Experiment [1] can be described thus: Antagonist activity at peripheral muscarinic M3 receptor in guinea pig longitudinal ileum assessed as effect on arecaidin propargyl ester-induced contraction after 1 hr. The experiment is classed as functional, tissue-based, Cavia porcellus.
The target in experiment [2] is T1, Muscarinic acetylcholine receptor M4 (Homo sapiens, UniProt P08173).
T1 sequence (P08173 whole entry): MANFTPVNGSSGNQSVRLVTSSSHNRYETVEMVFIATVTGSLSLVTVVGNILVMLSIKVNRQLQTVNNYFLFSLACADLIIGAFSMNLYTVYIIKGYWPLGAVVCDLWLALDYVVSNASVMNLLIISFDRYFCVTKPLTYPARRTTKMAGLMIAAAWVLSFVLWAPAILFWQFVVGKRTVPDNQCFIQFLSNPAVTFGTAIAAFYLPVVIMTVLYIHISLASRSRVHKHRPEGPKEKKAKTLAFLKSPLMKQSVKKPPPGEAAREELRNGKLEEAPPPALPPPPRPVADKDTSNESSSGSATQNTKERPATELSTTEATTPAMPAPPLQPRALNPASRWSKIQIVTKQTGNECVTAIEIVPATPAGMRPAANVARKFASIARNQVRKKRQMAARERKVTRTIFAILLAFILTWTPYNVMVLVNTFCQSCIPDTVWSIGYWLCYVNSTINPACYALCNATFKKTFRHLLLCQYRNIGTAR
The experiment can be described thus: Displacement of [3H]N-methylscopolamine chloride from human cloned muscarinic M4 receptor expressed in CHOK1 cells. The experiment is classed as cell-based, CHO-K1.

The nature of experiment [3]: Antagonist activity at peripheral muscarinic M4 receptor in rabbit vas deferens assessed as effect on McN-A-343-induced contraction after 1 hr. In kind it is functional, tissue-based. As to conditions: Oryctolagus cuniculus, read-out: pA2 (converted).
Experiment [4] concerns the target T2, Muscarinic acetylcholine receptor M1 (Homo sapiens, UniProt P11229).
T2 sequence (P11229 whole entry): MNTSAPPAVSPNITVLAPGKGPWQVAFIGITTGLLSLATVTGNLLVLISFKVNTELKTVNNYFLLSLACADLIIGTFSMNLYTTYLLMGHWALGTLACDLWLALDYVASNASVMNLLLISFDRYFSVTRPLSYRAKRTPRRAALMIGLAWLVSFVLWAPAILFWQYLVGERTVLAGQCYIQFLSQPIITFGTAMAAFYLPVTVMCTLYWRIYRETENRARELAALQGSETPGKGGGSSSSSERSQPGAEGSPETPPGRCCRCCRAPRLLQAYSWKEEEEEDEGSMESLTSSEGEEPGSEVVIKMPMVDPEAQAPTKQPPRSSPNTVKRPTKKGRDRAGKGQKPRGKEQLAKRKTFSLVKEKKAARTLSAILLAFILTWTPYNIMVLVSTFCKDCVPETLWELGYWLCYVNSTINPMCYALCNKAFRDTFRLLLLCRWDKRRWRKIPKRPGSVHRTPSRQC
The experiment can be described thus: Displacement of [3H]N-methylscopolamine chloride from human cloned muscarinic M1 receptor expressed in CHOK1 cells. The experiment is classed as cell-based, CHO-K1.

The target of experiment [5] is T3, Muscarinic acetylcholine receptor M2 (Homo sapiens, UniProt P08172).
T3 sequence (P08172 whole entry): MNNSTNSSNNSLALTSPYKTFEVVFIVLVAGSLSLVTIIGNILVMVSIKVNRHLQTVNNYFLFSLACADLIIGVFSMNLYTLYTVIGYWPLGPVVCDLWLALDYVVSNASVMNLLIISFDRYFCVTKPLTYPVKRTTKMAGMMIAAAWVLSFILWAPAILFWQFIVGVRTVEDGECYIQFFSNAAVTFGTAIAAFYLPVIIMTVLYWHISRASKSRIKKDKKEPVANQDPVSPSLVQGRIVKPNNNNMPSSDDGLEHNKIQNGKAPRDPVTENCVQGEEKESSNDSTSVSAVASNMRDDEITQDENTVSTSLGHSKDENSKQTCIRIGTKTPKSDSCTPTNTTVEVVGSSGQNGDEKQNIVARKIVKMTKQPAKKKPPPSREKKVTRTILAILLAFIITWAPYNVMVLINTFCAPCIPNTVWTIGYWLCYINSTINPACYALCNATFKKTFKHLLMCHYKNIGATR
The experiment can be described thus: Displacement of [3H]N-methylscopolamine chloride from human cloned muscarinic M2 receptor expressed in CHOK1 cells. In kind it is cell-based, CHO-K1.

Experiment [6] concerns the target Muscarinic acetylcholine receptor M3 (Homo sapiens, UniProt P20309). Kind of experiment: Displacement of [3H]N-methylscopolamine chloride from human cloned muscarinic M3 receptor expressed in CHOK1 cells. The experiment is classed as cell-based, CHO-K1.
Experiment [7] in a line: Antagonist activity at peripheral muscarinic M2 receptor in guinea pig left atrium assessed as effect on arecaidin propargyl ester-induced contraction after 1 hr. The experiment is classed as functional, tissue-based. Particulars: Cavia porcellus, Cardiac atrium, read-out: pA2 (converted).

Some results are limits rather than exact numbers.

Muscarinic acetylcholine receptor M3, sequence (P20309 whole entry): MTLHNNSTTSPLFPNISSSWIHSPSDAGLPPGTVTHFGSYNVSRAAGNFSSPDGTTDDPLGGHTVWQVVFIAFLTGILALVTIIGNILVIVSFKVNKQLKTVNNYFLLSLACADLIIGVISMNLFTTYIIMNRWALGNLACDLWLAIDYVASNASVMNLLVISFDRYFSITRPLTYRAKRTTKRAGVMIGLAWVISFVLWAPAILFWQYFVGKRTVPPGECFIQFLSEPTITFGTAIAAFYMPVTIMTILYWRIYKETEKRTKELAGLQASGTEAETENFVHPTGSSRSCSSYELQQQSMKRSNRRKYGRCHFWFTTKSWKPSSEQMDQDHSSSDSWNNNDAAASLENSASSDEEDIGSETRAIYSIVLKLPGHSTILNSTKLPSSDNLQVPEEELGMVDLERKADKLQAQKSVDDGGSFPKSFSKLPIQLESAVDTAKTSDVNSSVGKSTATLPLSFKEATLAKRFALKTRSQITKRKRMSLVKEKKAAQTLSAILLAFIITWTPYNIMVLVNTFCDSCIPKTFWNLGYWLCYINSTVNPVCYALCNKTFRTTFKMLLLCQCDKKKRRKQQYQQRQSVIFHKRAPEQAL

For the compound `CN(C)[C@@H]1CCCC[C@H]1N(C)CC(=O)N1c2ccccc2C(=O)Nc2cccnc21.O=C(O)C(=O)O.O=C(O)C(=O)O`, in experiment [1], the pA2 is recorded as 7.76.

For `CN(C)[C@H]1CCCC[C@@H]1N(C)CC(=O)N1c2ccccc2C(=O)Nc2cccnc21.O=C(O)C(=O)O.O=C(O)C(=O)O`, the pA2 in experiment [1] stood at 7.58.

On to `CN(C)[C@@H]1CCCC[C@@H]1N(C)CC(=O)N1c2ccccc2C(=O)Nc2cccnc21.O=C(O)C(=O)O.O=C(O)C(=O)O`, for which the pA2 in experiment [1] is 7.57.

As for `CN(C)[C@H]1CCCC[C@H]1N(C)CC(=O)N1c2ccccc2C(=O)Nc2cccnc21.O=C(O)C(=O)O.O=C(O)C(=O)O`, in experiment [1], the pA2 was 7.64.

As for `CN1CCN(CC(=O)N2c3ccccc3C(=O)Nc3cccnc32)[C@@H]2CCCC[C@H]21` (relative stereo), the Ki is 6610 nM in experiment [2], 2290 nM in experiment [4], 1000 nM in experiment [5] and greater than 10000 nM in experiment [6]. Moreover, the values for the Kb in experiment [3] and in experiment [7] were 79.4 nM and 87.1 nM, respectively. In addition, the pA2 in experiment [1] is recorded as 6.47.

Turning to `CN1CCN(CC(=O)N2c3ccccc3C(=O)Nc3cccnc32)[C@@H]2CCCC[C@@H]21` (relative stereo), the Ki was 2450 nM in experiment [2], 1450 nM in experiment [4], 646 nM in experiment [5] and greater than 10000 nM in experiment [6]. The results for the Kb in experiment [3] and in experiment [7] were 60.3 nM and 741 nM, respectively. Besides, the pA2 in experiment [1] turned out to be 6.01.

In the case of `CN1CCN(CC(=O)N2c3ccccc3C(=O)Nc3cccnc32)CC1` [PIRENZEPINE], the Kb in experiment [3] is 8.91 nM; in experiment [7] it was 339 nM. In addition, in experiment [1], the pA2 amounted to 6.88.

On to `CN(CCCCCCCCN(C)CCCCCCN(CC(=O)N1c2ccccc2C(=O)Nc2cccnc21)CC(=O)N1c2ccccc2C(=O)Nc2cccnc21)CCCCCCNCC(=O)N1c2ccccc2C(=O)Nc2cccnc21` [TRIPITRAMINE], for which the Ki in experiment [2] was 11.5 nM; in experiment [4], 3.55 nM; in experiment [6] it was 148 nM. Also, in experiment [3], the Kb is 11.2 nM. Besides, in experiment [1], the pA2 was determined as 6.55.

The record behind these values is ChEMBL document CHEMBL1155803 (Bioorg Med Chem, 2008).
